For orientation: LOAEL means the lowest tested level that showed an adverse finding. As a reminder, the NOAEL is the highest dose or exposure tested at which no adverse effect was seen.

Six molecules from EPA's ToxRefDB 2 can be followed below.

Data set [1] concerns rat. The settings on record: Prenatal developmental toxicity study; sprague dawley; Oral; Gavage/Intubation; dose end: 15 GD; group: maternal; systemic / in life observation / body weight / body weight gain.
Data set [2] concerns rat. The settings on record: Subchronic oral toxicity in rodents, fischer, Gavage/Intubation, dose end: 13 week, group: systemic.
Data set [3] relates to rat. The settings on record: Multigenerational reproductive toxicity study, sprague dawley, Oral, Water, dose end: 2 generation, group: parental.
Data set [4] relates to mouse. The settings on record: Subchronic oral toxicity in rodents, b6c3f1, Gavage/Intubation, dose end: 13 week, group: systemic.
Data set [5] deals with mouse. As to conditions: Carcinogenicity; b6c3f1; Oral; Gavage/Intubation; dose end: 2 year; group: systemic; systemic / in life observation / body weight / body weight + systemic / in life observation / clinical signs / [other] + systemic / in life ….
In data set [6] the test system is rat. The settings on record: Combined chronic toxicity/carcinogenicity; fischer; Oral; Gavage/Intubation; dose end: 2 year; group: systemic; systemic / in life observation / clinical signs / ataxia + systemic / in life observation / clinical signs / prostration + systemic / in ….
Data set [7] deals with rat. As to conditions: Carcinogenicity; fischer; Oral; Water; dose end: 104 week; group: systemic; systemic / in life observation / water consumption / water consumption.
For data set [8], the system named is mouse. As to conditions: Multigenerational reproductive toxicity study, other, Oral, Feed, dose end: 1 generation.
For data set [9], the system named is mouse. As to conditions: Prenatal developmental toxicity study, cd1, Oral, Gavage/Intubation, dose end: 14 GD.
Data set [10] concerns rat. The settings on record: Subchronic oral toxicity in rodents, wistar, Feed, dose end: 90 day, group: systemic, systemic / in life observation / body weight / body weight + systemic / in life observation / food consumption / food consumption + systemic….
In data set [11] the test system is mouse. As to conditions: Subchronic oral toxicity in rodents, cd1, Feed, dose end: 90 day, group: systemic.
Data set [12] has as its system rat. The settings on record: Subchronic oral toxicity in rodents, other, Feed, dose end: 90 day, group: systemic.
Data set [13] relates to rat. The settings on record: Multigenerational reproductive toxicity study, sprague dawley, Oral, Feed, dose end: 2 generation.
Data set [14] relates to rat. The settings on record: Prenatal developmental toxicity study, wistar, Oral, Gavage/Intubation, dose end: 15 GD.
The test system of data set [15] is rat. The settings on record: Subchronic oral toxicity in rodents, fischer, Feed, dose end: 13 week, group: systemic.
For a further data set, the system named is dog. As to conditions: Chronic toxicity; beagle; Oral; Capsule; dose end: 12 month; group: cholinesterase; cholinesterase / cholinesterase / cholinesterase / plasma cholinesterase (che).
Data set [16] deals with rat. The settings on record: Developmental neurotoxicity study, sprague dawley, Inhalation, Whole-Body, dose end: 2 generation, group: cannot be grouped.
Setting [17] is: systemic / in life observation / clinical signs / tremors + systemic / in life observation / mortality / mortality + systemic / organ weight….
Setting [18] is: systemic / organ weight / adrenal gland / absolute + systemic / organ weight / adrenal gland / relative to body weight.
Setting [19] is: systemic / in life observation / body weight / body weight gain + systemic / in life observation / water consumption / water consumption + ….
Where [20] appears, read: systemic / organ weight / adrenal gland / absolute + systemic / organ weight / adrenal gland / relative to body weight + systemic / in life ….
The mark [21] stands for this setting: group: offspring, systemic / in life observation / body weight / litter weight + systemic / in life observation / body weight / offspring (pup) weight + ….
The mark [22] stands for this setting: group: reproductive, reproductive / reproductive performance / mating / mating + reproductive / reproductive performance / estrous cycle / length + reproductive….
[23] abbreviates: group: developmental, systemic / in life observation / body weight / offspring (pup) weight.
The mark [24] stands for this setting: group: maternal, systemic / in life observation / mortality / mortality.
Setting [25] is: systemic / in life observation / body weight / body weight gain + systemic / organ weight / heart / relative to body weight + systemic / ….
[26] abbreviates: systemic / in life observation / food consumption / food consumption.
[27] abbreviates: systemic / in life observation / food consumption / food consumption + systemic / in life observation / body weight / body weight + systemic….
Setting [28] is: group: offspring, developmental / developmental malformation / testes / delayed descent + developmental / developmental landmark / preputial separation / ….
[29] abbreviates: group: parental, systemic / in life observation / body weight / body weight + systemic / organ weight / adrenal gland / relative to body weight + systemic / ….
Setting [30] is: group: reproductive, reproductive / reproductive performance / estrous cycle / periodicity + reproductive / reproductive performance / fertility / fertility.
Where [31] appears, read: group: developmental, systemic / in life observation / body weight / fetal weight + developmental / developmental malformation / mouth / jaw / cleft palate.
Setting [32] is: group: maternal, reproductive / reproductive performance / postimplantation loss / postimplantation loss + reproductive / reproductive performance / ….
Where [33] appears, read: systemic / clinical chemistry / albumin / albumin + systemic / clinical chemistry / triglycerides / triglycerides.
The mark [34] stands for this setting: systemic / clinical chemistry / alkaline phosphatase (alp/alk) / alkaline phosphatase (alp/alk) + systemic / clinical chemistry / bile acids….

Structures are written as SMILES. Bounds are passed on as bounds.

For the molecule `Oc1cccc(O)c1` [Resorcinol], the LEL in the data set with rat [1] turned out to be 500 mg/kg/day; in the data set on rat [2] (setting [18]), 32 mg/kg/day; with rat [3] (systemic / in life observation / water consumption / water consumption) it was 86 mg/kg/day; with mouse [4] (setting [18]), 28 mg/kg/day; with mouse [5] it was 225 mg/kg/day; in the data set on rat [6], 100 mg/kg/day. Further, the lowest observed adverse effect level (LOAEL) is > 500 mg/kg/day with rat [1]; > 520 mg/kg/day in the data set on rat [2] (setting [17]); > 233 mg/kg/day in the data set on rat [3] (setting [19]); > 420 mg/kg/day with mouse [4] (setting [20]); 225 mg/kg/day with mouse [5]; 100 mg/kg/day with rat [6]. Moreover, the NEL with rat [1] is 250 mg/kg/day; in the data set on rat [2] (setting [18]), < 32 mg/kg/day; in the data set with rat [3] (setting [19]) it was 31 mg/kg/day; with mouse [4] (setting [18]) it was < 28 mg/kg/day; in the data set on mouse [5], 112 mg/kg/day; in the data set with rat [6] it was 50 mg/kg/day. For the same molecule, the NOAEL in the data set on rat [1] is ≥ 500 mg/kg/day; in the data set on rat [2] (setting [17]) it was ≥ 520 mg/kg/day; in the data set with rat [3] (setting [19]), ≥ 233 mg/kg/day; in the data set with mouse [4] (setting [20]), ≥ 420 mg/kg/day; in the data set on mouse [5] it was 112 mg/kg/day; in the data set with rat [6], 50 mg/kg/day.

Regarding `O=C(OC[C@H]1O[C@@H](OC(=O)c2cc(O)c(O)c(OC(=O)c3cc(O)c(O)c(O)c3)c2)[C@H](OC(=O)c2cc(O)c(O)c(OC(=O)c3cc(O)c(O)c(O)c3)c2)[C@@H](OC(=O)c2cc(O)c(O)c(OC(=O)c3cc(O)c(O)c(O)c3)c2)[C@@H]1OC(=O)c1cc(O)c(O)c(OC(=O)c2cc(O)c(O)c(O)c2)c1)c1cc(O)c(O)c(OC(=O)c2cc(O)c(O)c(O)c2)c1` [Tannic acid], in the data set with rat [7], the LEL was 131 mg/kg/day, the LOAEL is > 243 mg/kg/day, the NEL is < 131 mg/kg/day and the no observed adverse effect level (NOAEL) was ≥ 243 mg/kg/day. In the data set on mouse [8] (setting [21]), the LEL turned out to be 12000 mg/kg/day, the LOAEL was > 12000 mg/kg/day, the NEL was < 12000 mg/kg/day and the NOAEL was ≥ 12000 mg/kg/day. For the same molecule, in the data set on mouse [8] (setting [22]), the LEL came out at 12000 mg/kg/day, the LOAEL is > 12000 mg/kg/day, the NEL is < 12000 mg/kg/day and the no-observed-adverse-effect level (NOAEL) was ≥ 12000 mg/kg/day.

For `CCOCCOCCO` [2-(2-Ethoxyethoxy)ethanol], the LEL with mouse [9] (setting [23]) worked out at 5500 mg/kg/day; in the data set with mouse [9] (setting [24]), 5500 mg/kg/day; in the data set with rat [10], 2500 mg/kg/day; in the data set on mouse [11] (systemic / in life observation / body weight / body weight gain + systemic / organ weight / kidney / relative to body weight) it was 2700 mg/kg/day; in the data set on rat [12] (setting [26]), 250 mg/kg/day. Also, the lowest observed adverse effect level (LOAEL) with mouse [9] (setting [23]) is > 5500 mg/kg/day; in the data set on mouse [9] (setting [24]), > 5500 mg/kg/day; in the data set with rat [10] it was > 2500 mg/kg/day; with mouse [11] (setting [25]), > 8100 mg/kg/day; with rat [12] (setting [27]), > 2500 mg/kg/day. The NEL in the data set with mouse [9] (setting [23]) is < 5500 mg/kg/day; in the data set on mouse [9] (setting [24]), < 5500 mg/kg/day; in the data set on rat [10], 500 mg/kg/day; in the data set on mouse [11] (setting [25]), 900 mg/kg/day; with rat [12] (setting [26]), < 250 mg/kg/day. Further, the no observed adverse effect level (NOAEL) in the data set with mouse [9] (setting [23]) was ≥ 5500 mg/kg/day; with mouse [9] (setting [24]) it was ≥ 5500 mg/kg/day; with rat [10], ≥ 2500 mg/kg/day; in the data set on mouse [11] (setting [25]), ≥ 8100 mg/kg/day; in the data set on rat [12] (setting [27]), ≥ 2500 mg/kg/day.

Regarding `CCCCOC(=O)c1ccccc1C(=O)OCCCC` [Dibutyl phthalate], the LEL in the data set with rat [13] (setting [28]) is 531 mg/kg/day; in the data set with rat [13] (group: parental, systemic / organ weight / adrenal gland / relative to body weight), 5.35 mg/kg/day; in the data set with rat [13] (group: reproductive, reproductive / reproductive performance / estrous cycle / periodicity) it was 95.3 mg/kg/day; with rat [14] (setting [31]) it was 630 mg/kg/day; in the data set on rat [14] (setting [32]) it was 630 mg/kg/day; with rat [15] (setting [33]) it was 125 mg/kg/day. Also, the LOAEL is > 531 mg/kg/day with rat [13] (setting [28]); > 531 mg/kg/day in the data set with rat [13] (setting [29]); > 1020 mg/kg/day in the data set with rat [13] (setting [30]); 630 mg/kg/day in the data set with rat [14] (group: developmental, systemic / in life observation / body weight / fetal weight); 630 mg/kg/day with rat [14] (setting [32]); > 2000 mg/kg/day in the data set with rat [15] (setting [34]). Further, the NEL in the data set with rat [13] (setting [28]) was 51.8 mg/kg/day; in the data set on rat [13] (setting [29]) it was 1.61 mg/kg/day; in the data set with rat [13] (setting [30]), 9.24 mg/kg/day; in the data set with rat [14] (setting [31]), 500 mg/kg/day; in the data set with rat [14] (setting [32]), 500 mg/kg/day; in the data set on rat [15] (setting [33]) it was < 125 mg/kg/day. Further, the NOAEL in the data set on rat [13] (setting [28]) is ≥ 531 mg/kg/day; in the data set with rat [13] (setting [29]), ≥ 531 mg/kg/day; in the data set with rat [13] (setting [30]), ≥ 1020 mg/kg/day; with rat [14] (setting [31]), 500 mg/kg/day; with rat [14] (setting [32]) it was 500 mg/kg/day; in the data set on rat [15] (setting [34]), ≥ 2000 mg/kg/day.

As for `CCOP(=S)(OCC)SCSC(C)(C)C` [Terbufos], in the data set on dog, the LEL was 0.015 mg/kg/day, the LOAEL came to 0.015 mg/kg/day, the NEL was < 0.015 mg/kg/day and the NOAEL was < 0.015 mg/kg/day.

With `C=Cc1ccccc1` [Styrene], the LEL with rat [16] (systemic / in life observation / body weight / body weight gain + systemic / in life observation / body weight / offspring (pup) weight) stood at 150 ppm. Also, in the data set on rat [16] (systemic / in life observation / body weight / body weight gain + systemic / in life observation / water consumption / water consumption), the NEL stood at 50 ppm. Further, in the data set with rat [16] (setting [19]), the lowest observed adverse effect level (LOAEL) is > 500 ppm and the NOAEL was ≥ 500 ppm.
